The source of these data is patent publication US12653827B2, “Methods of treating indolent systemic mastocytosis” (Telios Pharma Inc., priority 2024, dated 2026).

For data set [1] the following is noted: cited from earlier work.
The subject of another data set is basophils. As to the kind of experiment: Comparison of BTK inhibitors by BAT (CD63 and CD203c). The following applies: concentration of 1 μM; 2 hours; blood from a healthy donor. The format is cell-based, human. The method, then:
The BAT assay using the Flow Cast Basophil Activation Kit (Buhlmann Diagnostics; Catalog #B-CCR-STCON) was then conducted following manufacturer instructions by (1) stimulating the blood with anti-FcεR stimulation control in stimulation buffer with IL-3 and staining cells for CCR3 and CD63 for 15 minutes at 37° C., (2) lysing red blood cells and fixing cells with Lysing Reagent at room temperature for 10 minutes, (3) washing cells with Wash Buffer, and (4) acquiring data on a flow cytometer. Activated basophils were defined as CCR3+, low side scatter and CD63+. Percent of activated basophils was calculated as number of activated basophils over the total number of basophils. A four-parameter logistic regression was applied to determine the EC50 and EC90.
Blood samples were gently rocked at room temperature for 2 hours. […] Activated basophils were also defined as CCR3+, low side scatter and CD203c+.

Another data set concerns mast cells. In words: Phosphorylation and degranulation markers in antigen-stimulated mast cells grown with chronic SCF (FIG. 21). Format: cell-based. The following applies: 1 μM, antigen 15 minutes. The procedure:
Histamine release, CD63 expression, CD203c expression, pBTK (Y223) levels, pP38 (T180/Y182) levels, pPLCg1 (S1248) levels, pERK (T202/Y204) levels, and pS6 (S235/236) levels are shown. Mast cells were grown with continuous (chronic) exposure to SCF and then stimulated with antigen (Ag) for 15 minutes, leading to phosphorylation of multiple kinases, including pBTK, pPLCγ1, pP38, pERK, and pS6 ribosome. This stimulation increases degranulation markers, including CD63, CD203c, and histamine release.

The conditions of data set [2]: ISM patients, cited from earlier work.

On to `Cc1nc(Nc2ncc(C(=O)Nc3c(C)cccc3Cl)s2)cc(N2CCN(CCO)CC2)n1` [dasatinib], for which the “subjects who discontinued treatment due to toxicity” value in data set [1] (overall, AdvSM and ISM subjects) is 34%. The “pleural effusion, grade 3 adverse event” value in data set [1] (patients overall) is on record as 10%.
Regarding `CC#CC(=O)N1CCC[C@H]1c1nc(-c2ccc(C(=O)Nc3ccccn3)cc2)c2c(N)nccn12` [acalabrutinib, (S)-4-(8-amino-3-(1-(but-2-ynoyl)pyrrolidin-2-yl)imidazo[1,5-a]pyrazin-1-yl)-N-(pyridin-2-yl)benzamide, reference compound], the “effect on basophil activation (CD63+, CD203c+)” value with basophils is given as “no effect on basophil activation”.
`Cn1cc(-c2cc3c(N4CCN(c5ncc([C@@](C)(N)c6ccc(F)cc6)cn5)CC4)ncnn3c2)cn1` [avapritinib]: in the data set on mast cells, the “phosphorylation and degranulation (activation)” value is listed as “only partially inhibits activation”. Further, the “reduction of total symptom score compared to the placebo” value in data set [2] (25 mg QD, Week 24, ISM-SAF survey) is recorded as 5.7 points. The “adverse reactions leading to dose interruptions” value in data set [2] (25 mg QD) is on record as 5%. Moreover, the “treated subjects who failed to achieve a mean symptom score reduction of 30%” value in data set [2] (first 6 months of treatment) is given as “approximately half”. The “subjects who achieved a 50% symptom score reduction” value in data set [2] (within the first 6 months of treatment) is reported as “about a third”.
